Assay results taken from paper PMC10716780, “The multistep oxidation of cholesterol to pregnenolone by human cytochrome P450 11A1 is highly processive” (The Journal of Biological Chemistry, 2023).

What was measured:
bovine P450 11A1 = tested on: bovine P450 11A1; parameters: method as in PMID 7056749; settings: bovine P450 11A1, within dead time of stopped-flow ref 12; cited from earlier work
human P450 11A1 [1] = biological target: T1, human P450 11A1 (Homo sapiens, UniProt P05108); test: Stopped-flow ketoconazole trap, koff and binding rate measurements; settings: for koff: read-out: koff of P450-sterol complex, 2 μM P450 11A1 + 2 μM steroid mixed with 20 μM ketoconazole, 23 °C, without Adx
T1 construct: M A S T R S P R P F N E I P S P G D N; Met-Ala (N-terminal start residues in place of the transit peptide and Ile40) (N); made in house; host or cells: E. coli C41(DE3) with GroES/GroEL, vector pET23C(+)
T1 sequence (P05108 41-521 limits assumed): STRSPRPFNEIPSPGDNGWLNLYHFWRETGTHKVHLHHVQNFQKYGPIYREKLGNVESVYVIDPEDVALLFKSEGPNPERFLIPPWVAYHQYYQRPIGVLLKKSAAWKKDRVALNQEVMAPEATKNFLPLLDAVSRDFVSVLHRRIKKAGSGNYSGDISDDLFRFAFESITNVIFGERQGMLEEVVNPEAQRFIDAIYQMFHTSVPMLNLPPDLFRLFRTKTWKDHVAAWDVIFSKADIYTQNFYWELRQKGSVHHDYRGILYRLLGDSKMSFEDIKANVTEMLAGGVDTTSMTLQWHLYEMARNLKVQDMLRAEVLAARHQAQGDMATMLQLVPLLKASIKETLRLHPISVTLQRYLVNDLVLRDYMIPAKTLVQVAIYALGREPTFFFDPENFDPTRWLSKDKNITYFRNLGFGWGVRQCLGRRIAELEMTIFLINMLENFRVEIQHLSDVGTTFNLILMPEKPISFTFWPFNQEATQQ
Procedure: Interaction of the azole nitrogen atom with the P450 heme produces a bathochromic (“type II”) spectral shift (to ∼430 nm)—an inverse effect of the binding of substrate.
Measurement of kon rate(s) was not performed because the sterols are delivered in a solution of HPCD, from which the dissociation rate is not known.
Determinations of koff rates were performed as previously described ([33]).

human P450 11A1 [2] = tested on: human P450 11A1; parameters: method as in PMID 33271253; settings: surface plasmon resonance ref 46; cited from earlier work
human P450 11A1 [3] = biological target: T2, human P450 11A1 (Homo sapiens, UniProt P05108); test: Kinetic isotope effect assay, disappearance of d0- and d3-cholesterol under single-turnover conditions; format: biochemical; parameters: M A S T R S P R P F N E I P S P G D N; Met-Ala (N-terminal start residues in place of the transit peptide and Ile40) (N); made in house; host or cells: E. coli (P450 11A1 in C41(DE3); Adx and AdR in E. coli); settings: 5 μM P450, 5 μM sterol, exponential decay fit
T2 sequence (P05108 41-521 limits assumed): T1 sequence (P05108 41-521 limits assumed)
T2 sequence (P00257 59-186 partner): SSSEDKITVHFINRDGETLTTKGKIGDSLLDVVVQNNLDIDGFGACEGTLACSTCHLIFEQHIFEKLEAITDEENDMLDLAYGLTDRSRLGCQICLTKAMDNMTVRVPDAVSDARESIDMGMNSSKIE
Procedure: (§1) P450 11A1 incubations were performed under (low Adx) single-turnover conditions (5 μM P450, 5 μM cholesterol; see Experimental procedures) with d0- (authentic, unlabeled) and d3-cholesterol, and the disappearance of each was monitored by LC-atmospheric pressure chemical ionization-MS (m/z 369.3516 and 372.3705, respectively). In theory, if C-H bond breaking were rate-limiting in the initial hydroxylation then the rate of d3-cholesterol consumption would be slower relative to the d0 compound due to the increased strength of a C-D bond.
The kinetic isotope experiment was designed similarly to the benchtop experiment described above, but with some modifications. P450 11A1 (5 μM) was reconstituted with the redox partners AdR (10 μM) and Adx (5 μM) on ice (10 min) prior to dilution in potassium Hepes (50 mM, pH 7.4) and H2O and addition of d3-cholesterol substrate (5 μM). The mixture was preincubated (5 min) prior to initiation with NADPH (2.5 mM, from 25 mM in potassium Hepes (50 mM, pH 7.4)) thus bringing all components to their desired final concentrations. After completing the desired incubation time, an aliquot (500 μl) was removed from the incubation and added to vials containing CH2Cl2 (5 ml) and the vials were mixed with a vortex device and placed on ice. The quenched reactions were centrifuged (10^3g, 5 min, 23 °C) to separate layers, and the organic (bottom) layers were removed (4 ml) and transferred to fresh glass vials. The extraction process was repeated and the two extracts (2 × 4 ml) from each sample were combined to maximize product recovery. Samples (8 ml) were brought to dryness under a stream of nitrogen, and the dried residues were dissolved in CH3OH (25 μl) and transferred to autosampler vials for analysis.
(§2) Samples (held at 4 °C) were injected (10 μl) using a Waters Acquity UPLC system on a Acquity BEH octadecylsilane (C18) 2.1 mm × 50 mm (1.7 μm) UPLC column (held at 25 °C) with a flow rate of 0.5 ml min^−1 using an isocratic mobile phase of CH3CN (only). The column eluate was subjected to atmospheric pressure chemical ionization and analyzed using a Thermo Fisher Scientific LTQ XL Orbitrap mass spectrometer instrument operating in positive mode, scanning from m/z 100 to 500, with a resolution setting of 120,000. Data were processed using Xcalibur QualBrowser (Thermo Fisher Scientific) software (version 2.0.7; https://www.thermofishcer.com/order/catalog/product/OPTON).

P450 11A1 (CYP11A1) = biological target: T3, P450 11A1 (CYP11A1) (Homo sapiens, UniProt P05108); test: as above; format: biochemical; settings: human, pH 7.4; 5 μM P450, 5 μM sterol, low Adx single-turnover; read-out: sterol half-life (t1/2) (converted)
T3 construct: M A S T R S P R P F N E I P S P G D N; Met-Ala (N-terminal start residues in place of the transit peptide and Ile40) (N); made in house; host or cells: E. coli (P450 11A1 in C41(DE3); Adx and AdR in E. coli)
T3 sequence (P05108 41-521 limits assumed): T1 sequence (P05108 41-521 limits assumed)
T3 sequence (P00257 59-186 partner): T2 sequence (P00257 59-186 partner)
Procedure: as §1
The kinetic isotope experiment was designed similarly to the benchtop experiment described above, but with some modifications. P450 11A1 (5 μM) was reconstituted with the redox partners AdR (10 μM) and Adx (5 μM) on ice (10 min) prior to dilution in potassium Hepes (50 mM, pH 7.4) and H2O and addition of d3-cholesterol substrate (5 μM). […]
as §2, with “Data were processed using Xcalibur QualBrowser (Thermo Fisher Scientific) software (version 2.0.7; https://www.thermofishcer.com/order/catalog/product/OPTON).” left out

SMILES	rates of binding and dissociation (bovine P450 11A1)	koff of P450-sterol complex (human P450 11A1 [1]; 2 μM P450 11A1 + 2 μM steroid mixed with 20 μM ketoconazole, 23 °C, without Adx)	koff (human P450 11A1 [1])	decrease in Kd of P450 11A1-Adx complex in the presence of cholesterol (human P450 11A1 [2])	rate of disappearance (human P450 11A1 [3])	half-life at 5 μM (P450 11A1 (CYP11A1))	observed binding rate (human P450 11A1 [1]; 20 μM final concentration, in HPCD)	apparent kon slower than kon of ketoconazole to unliganded P450 (human P450 11A1 [1]; in the presence of HPCD)	kon (human P450 11A1 [1]; read-out: apparent kon)
CC(C)CC[C@@H](O)[C@](C)(O)[C@H]1CC[C@H]2[C@@H]3CC=C4C[C@@H](O)CC[C@]4(C)[C@H]3CC[C@]12C [20R,22R-(OH)2 Chol, (20R,22R)-Cholest-5-ene-3β,20,22-triol]	> 300 s⁻¹	–	–	–	–	–	–	–	–
CC(C)CC[C@@H](O)[C@@H](C)[C@H]1CC[C@H]2[C@@H]3CC=C4C[C@@H](O)CC[C@]4(C)[C@H]3CC[C@]12C [22R-OH Chol, 22R-hydroxycholesterol]	–	0.044 ± 0.001 s⁻¹	0.04 s⁻¹	–	–	–	–	–	–
CC(C)CCC[C@@H](C)[C@H]1CC[C@H]2[C@@H]3CC=C4C[C@@H](O)CC[C@]4(C)[C@H]3CC[C@]12C [Cholesterol]	> 300 s⁻¹	–	0.24 ± 0.01 s⁻¹	~3 fold	0.035 s⁻¹	20 s	0.05 s⁻¹	> 200 fold	2500 M⁻¹ s⁻¹
